Assay results: patent US20020031483A1, “HAIR TREATMENT COMPOSITION COMPRISING A SUGAR OR CARBOHYDRATE FOR THE PURPOSES OF PARTICIPATING IN OXYGEN CONSUMPTION OF A HAIR METHOD AND USE” (priority 1998, published 2002)
Entries after “also recorded” stand apart in the source; their conditions may differ. Counter-ions that a name gives are not always drawn.

Columns and labels:
[1] = system: human hair follicles; test: Evolution of radiolabelled CO2 from radiolabelled substrate by cultured hair follicles; assay type: cell-based; conditions: five follicles per tube, 37° C.
Protocol: Hair follicles were isolated from human scalp skin obtained from four different female subjects; hair follicles were isolated from human scalp skin and placed into a 6 well culture plate at a density of 15 follicles/well in 5 mL complete Williams E medium containing penicillin (50 μg/mL), streptomycin (50 IU/mL), L-glutamine (2 mM), hydrocortisone (10 ng/mL) and insulin (10 μg/mL). In addition a cocktail of amino acids consisting of arginine (0.45 mM) proline (1 mM), glycine (2.6 mM) and alanine (1 mM) was also added since these are though to improve the maintenance of hair follicles in vitro. After an overnight incubation (37° C., 5% CO2 in air) to ensure continued growth following the isolation procedure, follicles were cut to a uniform length and incubated until required.
For each experimental time point, five follicles were transferred to each of 3 eppendorf tubes in triplicate with 10 μL medium. […] After the seals had been removed the medium was sampled for counting the remaining radioactivity (3×10 μL). The KOH solution was analysed by liquid scintillation counting (Beckman LS 60001C) after addition of 18 mL Hionic Fluor (Packard).
Results from the mean of each triplicate control were subtracted from the corresponding mean from the experimental results. These combined results were then analysed by regression. […]

[2] = system: human hair follicles; test: tissue or blood; assay type: cell-based; conditions: read-out: inhibition of oxygen consumption by the follicles
Protocol: Follicles were isolated from human facelift skin and grown in culture according to the methods described (Philpott et al J.Cell.Sci.97: pp 463-470 1990). For the oxygen consumption experiments a Clarke electrode apparatus (Tank Brothers Limited, Cambridge, England) was used.
The equipment was set up in accordance with the manufacturers instructions, the temperature of the cell being maintained at 37° C. using a circulating water bath. The output of the electrode was recorded using Perkin Elmer Turbochrom 4 data logging software.
The apparatus contains a Teflon membrane in the cell which was changed daily and the cell calibrated and prepared for use as follows. […] After recording this new ‘zero oxygen’ baseline the medium was reoxygenated by bubbling air through and the new baseline recorded. […]
After calibration, a fresh 2 ml sample of William's E medium gassed with 5% carbon dioxide in air was added, the plunger inserted into the cell ensuring that no air bubble was trapped, and the output from the cell recorded to give a rate for oxygen consumption of the cell. […] The new rate of oxygen consumption was recorded for a sufficient time as to enable its accurate determination. […]
From the calibration of the electrode, a curve was derived from which a baseline reading corresponding to zero oxygen level could be derived. […]

O=C(O)CC(O)(CC(=O)O)C(=O)O [citrate, [1,5-^14C]-sodium citrate]
average production of CO2 evolved from metabolism of citrate ([1]; [1,5-14C]-sodium citrate, about 3 μCi in 100 μL medium, up to 12 h): 0.23 (±0.04) μmol CO2
uptake and metabolism by hair follicles (radiolabelled CO2 evolution), result in words ([1]; radiolabelled substrate in medium): linear increase in the amount of CO2 evolved; also recorded: taken up into hair follicles and used as an energy source

C[C@]12CC[C@H]3[C@@H](CC[C@]4(O)C[C@@H](O)CC[C@]34C=O)[C@@]1(O)CC[C@@H]2C1=CC(=O)OC1 [strophanthidin, Strophanthidin]
inhibition at 100 µM ([2]; 0.1 mM strophanthidin, 160 follicles in 2 ml medium, 37° C.): 76%

[N-]=[N+]=[N-] [sodium azide]
inhibition at 2000 µM [2]: 54 to 87%
